According to US20110086759A1, “CHEMICAL COMPOUNDS” (SYNGENTA CROP PROTECTION, INC., priority 2007, published 2011):

Columns and labels:
Assay type in all cases: in vivo
[1] = system: Amaranthus retoflexus (AMARE); assay: Pre-emergence biological efficacy, glasshouse pot test; settings: Amaranthus retroflexus, 312 h; pre-emergence, 1,000 g/ha, evaluated after 13 days (100=total damage; 0=no damage); read-out: Percentage damage AMARE
Summary of the method: (§1)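 Scores on a 0–100 damage scale were taken 13 days after spraying. Application rate 1000 or 250 g/ha, one day after sowing, in acetone/water-based aqueous spray containing 0.5% Tween 20.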

[2] = system: Echinochloa crus-galli (ECHCG); assay: as above; settings: 312 h, pre-emergence, 1,000 g/ha, evaluated after 13 days (100=total damage; 0=no damage), read-out: Percentage damage ECHCG
Summary of the method: as §1

[3] = system: Solanum nigrum (SOLNI); assay: as above; settings: 312 h, pre-emergence, 1,000 g/ha, evaluated after 13 days (100=total damage; 0=no damage), read-out: Percentage damage SOLNI
Summary of the method: as §1

[4] = system: Setaria faberi (SETFA); assay: as above; settings: 312 h, pre-emergence, 1,000 g/ha, evaluated after 13 days (100=total damage; 0=no damage), read-out: Percentage damage SETFA
Summary of the method: as §1

[5] = system: Ipomea hederaceae (IPOHE); assay: as above; settings: Ipomoea hederacea, 312 h; pre-emergence, 1,000 g/ha, evaluated after 13 days (100=total damage; 0=no damage); read-out: Percentage damage IPOHE
Summary of the method: as §1

[6] = system: Alopecurus myosuroides (ALOMY); assay: as above; settings: 312 h, pre-emergence, 1,000 g/ha, evaluated after 13 days (100=total damage; 0=no damage), read-out: Percentage damage ALOMY
Summary of the method: as §1

[7] = system: Amaranthus retoflexus (AMARE); assay: Post-emergence biological efficacy, glasshouse pot test; settings: Amaranthus retroflexus, 312 h; post-emergence, 1,000 g/ha, evaluated after 13 days (100=total damage; 0=no damage); read-out: Percentage damage caused to weed species, AMARE
Summary of the method: (§2)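 Scored 13 days after spraying on a 0 (no damage) to 100 (total damage) scale. Treatment was a post-emergence spray at 1000 or 250 g/ha, from acetone/water 50:50 plus 0.5% Tween 20, onto 8-day-old plants in soil pots. Growth at 24/16° C, 14 h photoperiod, 65% humidity, watered twice daily.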

[8] = system: Echinochloa crus-galli (ECHCG); assay: as above; settings: 312 h, post-emergence, 1,000 g/ha, evaluated after 13 days (100=total damage; 0=no damage), read-out: Percentage damage caused to weed species, ECHCG
Summary of the method: as §2

[9] = system: Solanum nigrum (SOLNI); assay: as above; settings: 312 h, post-emergence, 1,000 g/ha, evaluated after 13 days (100=total damage; 0=no damage), read-out: Percentage damage caused to weed species, SOLNI
Summary of the method: as §2

[10] = system: Setaria faberi (SETFA); assay: as above; settings: 312 h, post-emergence, 1,000 g/ha, evaluated after 13 days (100=total damage; 0=no damage), read-out: Percentage damage caused to weed species, SETFA
Summary of the method: as §2

[11] = system: Ipomea hederaceae (IPOHE); assay: as above; settings: Ipomoea hederacea, 312 h; post-emergence, 1,000 g/ha, evaluated after 13 days (100=total damage; 0=no damage); read-out: Percentage damage caused to weed species, IPOHE
Summary of the method: as §2

[12] = system: Alopecurus myosuroides (ALOMY); assay: as above; settings: 312 h, post-emergence, 1,000 g/ha, evaluated after 13 days (100=total damage; 0=no damage), read-out: Percentage damage caused to weed species, ALOMY
Summary of the method: as §2

| Structure (SMILES) | pest or weed control at 1000 g/ha [1] [%] | pest or weed control at 1000 g/ha [2] [%] | pest or weed control at 1000 g/ha [3] [%] | pest or weed control at 1000 g/ha [4] [%] | pest or weed control at 1000 g/ha [5] [%] | pest or weed control at 1000 g/ha [6] [%] | pest or weed control at 1000 g/ha [7] [%] | pest or weed control at 1000 g/ha [8] [%] | pest or weed control at 1000 g/ha [9] [%] | pest or weed control at 1000 g/ha [10] [%] | pest or weed control at 1000 g/ha [11] [%] | pest or weed control at 1000 g/ha [12] [%] |
| --- | --- | --- | --- | --- | --- | --- | --- | --- | --- | --- | --- | --- |
| COC(=O)c1nc(C2CC2)nc(NCc2ccc(Br)o2)c1Cl [Compound 4-129, 4-(5-bromofuran-2-ylmethylamino)-5-chloro-2-cyclopropyl-6-methoxycarbonyl-pyrimidine] | 100 | 70 | 100 | 40 | 100 | 30 | 100 | 70 | 90 | 90 | 100 | 40 |
| COC(=O)c1nc(C2CC2)nc(NCc2ccc(C)o2)c1Cl [Compound 4-135, 5-Chloro-2-cyclopropyl-6-methoxy carbonyl-4-(5-methylfuran-2-ylmethylamino)-pyrimidine] | 100 | 100 | 100 | 90 | 100 | 60 | 100 | 90 | 100 | 90 | 100 | 60 |
| COC(=O)c1nc(C2CC2)nc(NCc2cccs2)c1Cl [Compound 4-140, 5-Chloro-2-cyclopropyl-6-methoxycarbonyl-4-(thiophen-2-ylmethylamino)-pyrimidine] | 100 | 40 | 100 | 50 | 80 | 20 | 90 | 60 | 90 | 70 | 90 | 30 |
| COC(=O)c1nc(C2CC2)nc(NCc2ccsc2Br)c1Cl [Compound 4-143, 4-(2-Bromothiophen-3-ylmethylamino)-5-chloro-2-cyclopropyl-6-methoxycarbonyl-pyrimidine] | 70 | 20 | 50 | 0 | 80 | 0 | 90 | 60 | 90 | 70 | 100 | 20 |
| COC(=O)c1nc(C2CC2)nc(NCc2cnc(Cl)s2)c1Cl [Compound 4-146, 5-Chloro-4-(2-chlorothiazol-5-ylmethylamino)-2-cyclopropyl-6-methoxycarbonyl-pyrimidine] | 70 | 50 | 40 | 0 | 100 | 50 | 90 | 50 | 90 | 70 | 80 | 20 |
| COC(=O)c1nc(C2CC2)nc(NCc2ncco2)c1Cl [Compound 4-148, 5-Chloro-2-cyclopropyl-6-methoxycarbonyl-4-(oxazol-2-ylmethylamino)-pyrimidine] | 80 | 30 | 90 | 20 | 100 | 20 | 100 | 40 | 80 | 50 | 60 | 20 |
| COC(=O)c1nc(C2CC2)nc(NCc2ccccn2)c1Cl [Compound 4-151, 5-Chloro-2-cyclopropyl-6-methoxycarbonyl-4-(pyrid-2-yl-methylamino)-pyrimidine] | 100 | 60 | 90 | 50 | 90 | 40 | 100 | 80 | 80 | 80 | 80 | 60 |
| COC(=O)c1nc(C2CC2)nc(NCc2ncccc2Cl)c1Cl [Compound 4-152, 5-Chloro-4-(3-chloropyrid-2-ylmethylamino)-2-cyclopropyl-6-methoxycarbonyl-pyrimidine] | 70 | 70 | 80 | 40 | 100 | 20 | 100 | 80 | 90 | 90 | 100 | 50 |
| COC(=O)c1nc(C2CC2)nc(NCc2ncccc2C)c1Cl [Compound 4-153, 5-Chloro-2-cyclopropyl-6-methoxycarbonyl-4-(3-methylpyrid-2-ylmethylamino)-pyrimidine] | 100 | 60 | 100 | 60 | 100 | 50 | 100 | 80 | 100 | 90 | 100 | 70 |
| COC(=O)c1nc(C2CC2)nc(NCc2ncc(C(F)(F)F)cc2Cl)c1Cl [Compound 4-155, 5-Chloro-4-(3-chloro-5-trifluoromethylpyrid-2-ylmethylamino)-2-cyclopropyl-6-methoxycarbonyl-pyrimidine] | 90 | 80 | 70 | 20 | 90 | 20 | 100 | 70 | 90 | 70 | 90 | 30 |
| COC(=O)c1nc(C2CC2)nc(NCc2cccnc2)c1Cl [Compound 4-156, 5-Chloro-2-cyclopropyl-6-methoxycarbonyl-4-(pyrid-3-ylmethyl-amino)pyrimidine] | 50 | 0 | 30 | 0 | 80 | 0 | 100 | 50 | 90 | 70 | 70 | 30 |
